According to ChEMBL document CHEMBL4138265, “Synthesis of a Chloroalkene Dipeptide Isostere-Containing Peptidomimetic and Its Biological Application” (ACS Med Chem Lett, 2018):

Key:
Integrin alpha-V/beta-3 [1] = molecular target: T1, Integrin alpha-V/beta-3 (Homo sapiens, UniProt P05106+P06756); assay: Inhibition of vitronectin binding to human integrin alphaVbeta3 measured after 4 hrs by ELISA; format: protein-complex assay
[2] = Stability in human serum at 1 mM incubated for 15 mins measured up to 180 mins by RP-HPLC method; format: ADME, cell-free; conditions: 0.25 h, 1000 µM
Integrin alpha-V/beta-3 [3] = molecular target: T1, Integrin alpha-V/beta-3; assay: Inhibition of vitronectin binding to integrin alphaVbeta3 in HDF pretreated for 20 mins followed by vitronectin addition measured after 40 mins by crystal violet staining based assay; format: protein-complex assay

T1 sequence (P05106 27-788 limits assumed): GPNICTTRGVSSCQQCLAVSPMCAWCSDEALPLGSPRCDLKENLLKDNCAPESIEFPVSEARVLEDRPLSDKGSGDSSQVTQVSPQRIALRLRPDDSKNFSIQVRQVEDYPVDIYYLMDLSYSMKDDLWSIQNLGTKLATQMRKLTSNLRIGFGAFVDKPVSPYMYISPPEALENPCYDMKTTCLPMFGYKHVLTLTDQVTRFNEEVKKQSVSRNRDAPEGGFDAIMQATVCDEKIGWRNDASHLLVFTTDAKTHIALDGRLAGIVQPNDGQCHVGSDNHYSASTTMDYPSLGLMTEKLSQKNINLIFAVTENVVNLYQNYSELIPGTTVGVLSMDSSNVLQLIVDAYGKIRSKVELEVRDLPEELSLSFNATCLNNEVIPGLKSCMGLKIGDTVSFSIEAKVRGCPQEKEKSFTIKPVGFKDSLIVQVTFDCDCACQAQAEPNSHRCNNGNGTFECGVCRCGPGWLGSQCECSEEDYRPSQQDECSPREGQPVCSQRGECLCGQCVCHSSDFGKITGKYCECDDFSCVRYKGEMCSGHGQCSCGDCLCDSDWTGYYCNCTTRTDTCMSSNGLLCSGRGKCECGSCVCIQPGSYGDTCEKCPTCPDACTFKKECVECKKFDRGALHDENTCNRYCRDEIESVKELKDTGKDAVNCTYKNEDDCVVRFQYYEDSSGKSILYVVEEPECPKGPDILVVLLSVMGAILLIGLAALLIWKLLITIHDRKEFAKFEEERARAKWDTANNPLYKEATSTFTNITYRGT
T1 sequence (P06756 31-889 limits assumed): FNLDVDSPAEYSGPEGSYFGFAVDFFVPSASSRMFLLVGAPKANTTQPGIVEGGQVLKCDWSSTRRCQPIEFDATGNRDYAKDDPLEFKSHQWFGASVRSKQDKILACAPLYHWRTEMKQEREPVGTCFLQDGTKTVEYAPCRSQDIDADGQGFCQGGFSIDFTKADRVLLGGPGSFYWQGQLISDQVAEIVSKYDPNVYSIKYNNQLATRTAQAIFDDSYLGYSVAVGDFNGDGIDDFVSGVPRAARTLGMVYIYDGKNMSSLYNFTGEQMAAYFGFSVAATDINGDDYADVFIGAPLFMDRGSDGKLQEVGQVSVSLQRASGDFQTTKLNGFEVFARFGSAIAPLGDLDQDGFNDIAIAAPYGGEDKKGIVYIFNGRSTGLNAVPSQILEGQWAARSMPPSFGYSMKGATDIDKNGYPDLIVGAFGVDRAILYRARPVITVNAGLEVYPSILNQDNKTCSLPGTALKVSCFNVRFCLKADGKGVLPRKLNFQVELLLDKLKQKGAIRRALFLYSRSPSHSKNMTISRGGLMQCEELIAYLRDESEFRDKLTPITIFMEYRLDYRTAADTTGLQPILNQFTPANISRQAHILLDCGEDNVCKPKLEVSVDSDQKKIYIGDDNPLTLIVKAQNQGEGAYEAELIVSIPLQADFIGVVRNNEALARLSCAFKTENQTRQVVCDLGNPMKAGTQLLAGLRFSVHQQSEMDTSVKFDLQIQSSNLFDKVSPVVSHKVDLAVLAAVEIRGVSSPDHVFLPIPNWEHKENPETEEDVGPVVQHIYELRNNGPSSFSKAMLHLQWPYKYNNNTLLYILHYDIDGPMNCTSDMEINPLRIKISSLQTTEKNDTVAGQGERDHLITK
T1 sequence (P06756 891-1048 limits assumed): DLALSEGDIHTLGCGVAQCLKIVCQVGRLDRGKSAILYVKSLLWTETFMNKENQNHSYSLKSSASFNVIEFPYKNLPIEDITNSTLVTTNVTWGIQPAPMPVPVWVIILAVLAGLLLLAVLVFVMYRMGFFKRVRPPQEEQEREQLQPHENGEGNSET

IC50 (Integrin alpha-V/beta-3 [1]) [nM]	Stability [2]	IC50 (Integrin alpha-V/beta-3 [3]) [nM]	Structure (SMILES)
3.6	–	–	CC(C)[C@@H]1/C=C/[C@@H](Cc2ccccc2)NC(=O)[C@H](CC(=O)O)NC(=O)CNC(=O)[C@H](CCCNC(=N)N)NC1=O
2.4	–	–	C/C1=C\[C@@H](Cc2ccccc2)NC(=O)[C@H](CC(=O)O)NC(=O)CNC(=O)[C@H](CCCNC(=N)N)NC(=O)[C@@H]1C(C)C
–	Stable	0.497	CC(C)[C@@H]1/C=C(\Cl)[C@@H](Cc2ccccc2)NC(=O)[C@H](CC(=O)O)NC(=O)CNC(=O)[C@H](CCCNC(=N)N)NC1=O
